# Laboratory results from patent publication US10519152B2, “Compounds and their use in treating cancer” (AstraZeneca AB, priority 2017, dated 2019).
# Target: T1, recombinant human Estrogen Receptor alpha ligand binding domain, residues 307-554 (ER alpha-LBD (GST)) (Homo sapiens, UniProt P03372)
# T1 construct: made in house
# T1 sequence (P03372 307-554): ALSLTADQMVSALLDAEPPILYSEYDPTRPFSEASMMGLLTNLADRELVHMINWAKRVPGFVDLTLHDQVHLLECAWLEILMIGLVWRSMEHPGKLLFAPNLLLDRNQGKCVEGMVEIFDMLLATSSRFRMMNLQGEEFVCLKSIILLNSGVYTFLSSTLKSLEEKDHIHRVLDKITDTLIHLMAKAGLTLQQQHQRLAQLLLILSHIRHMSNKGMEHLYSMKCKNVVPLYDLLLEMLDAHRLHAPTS
# Test: ERα binding assay (LanthaScreen TR-FRET competition)
# Settings: TR-FRET competition with Fluormone ES2 tracer, 4 hours at room temperature; single experiment or average of two or more
row,SMILES,IC50 [nM]
1,"Cc1ncsc1-c1ccc(CNC(=O)[C@@H]2C[C@@H](O)CN2C(=O)[C@@H](NC(=O)COCCOCCC(F)(F)CCOc2cc(F)c([C@@H]3c4[nH]c5ccccc5c4C[C@@H](C)N3CC(C)(C)F)c(F)c2)C(C)(C)C)cc1 [Example 127, (2S,4R)-1-((S)-2-(2-(2-((5-(3,5-Difluoro-4-((R,3R)-2-(2-fluoro-2-methylpropyl)-3-methyl-2,3,4,9-tetrahydro-1H-pyrido[3,4-b]indol-1-yl)phenoxy)-3,3-difluoropentyl)oxy)ethoxy)acetamido)-3,3-dimethylbutanoyl)-4-hydroxy-N-(4-(4-methylthiazol-5-yl)benzyl)pyrrolidine-2-carboxamide]",0.5
2,"Cc1ncsc1-c1ccc(CNC(=O)[C@@H]2C[C@@H](O)CN2C(=O)[C@@H](NC(=O)COCCC(F)(F)CCOc2cc(F)c([C@@H]3c4[nH]c5ccccc5c4C[C@@H](C)N3CC(C)(C)F)c(F)c2)C(C)(C)C)cc1 [Example 130, (2S,4R)-1-((S)-2-(2-((5-(3,5-Difluoro-4-((1R,3R)-2-(2-fluoro-2-methylpropyl)-3-methyl-2,3,4,9-tetrahydro-1H-pyrido[3,4-b]indol-1-yl)phenoxy)-3,3-difluoropentyl)oxy)acetamido)-3,3-dimethylbutanoyl)-4-hydroxy-N-(4-(4-methylthiazol-5-yl)benzyl)pyrrolidine-2-carboxamide]",0.9
3,"Cc1ncsc1-c1ccc(CNC(=O)[C@@H]2C[C@@H](OC(=O)[C@@H]3CCCN3)CN2C(=O)[C@@H](NC(=O)CCCCCCCCCCOc2cc(F)c([C@@H]3c4[nH]c5ccccc5c4C[C@@H](C)N3CC(C)(C)F)c(F)c2)C(C)(C)C)cc1 [Example 33, (3R,5S)-1-((S)-2-(11-(3,5-Difluoro-4-((1R,3R)-2-(2-fluoro-2-methylpropyl)-3-methyl-2,3,4,9-tetrahydro-1H-pyrido[3,4-b]indol-1-yl)phenoxy)undecanamido)-3,3-dimethylbutanoyl)-5-((4-(4-methylthiazol-5-yl)benzyl)carbamoyl)pyrrolidin-3-yl L-prolinate]",8.9
4,"Cc1ncsc1-c1ccc(CNC(=O)[C@@H]2C[C@@H](O)CN2C(=O)[C@@H](NC(=O)CCCCCCCCOc2cc(F)c([C@@H]3c4[nH]c5ccccc5c4C[C@@H](C)N3CC(C)(C)F)c(F)c2)C(C)(C)C)cc1 [Example 15, (2S,4R)-1-((S)-2-(9-(3,5-Difluoro-4-((1R,3R)-2-(2-fluoro-2-methylpropyl)-3-methyl-2,3,4,9-tetrahydro-1H-pyrido[3,4-b]indol-1-yl)phenoxy)nonanamido)-3,3-dimethylbutanoyl)-4-hydroxy-N-(4-(4-methylthiazol-5-yl)benzyl)pyrrolidine-2-carboxamide]",1.5
5,"Cc1ncsc1-c1ccc(CNC(=O)[C@@H]2C[C@@H](O)CN2C(=O)[C@@H](NC(=O)COCCOCCOCCOc2cc(F)c([C@@H]3c4[nH]c5ccccc5c4C[C@@H](C)N3C[C@H](C)CO)c(F)c2)C(C)(C)C)cc1 [Example 101, (2S,4R)-1-((S)-2-(tert-butyl)-14-(3,5-difluoro-4-((1R,3R)-2-((S)-3-hydroxy-2-methylpropyl)-3-methyl-2,3,4,9-tetrahydro-1H-pyrido[3,4-b]indol-1-yl)phenoxy)-4-oxo-6,9,12-trioxa-3-azatetradecanoyl)-4-hydroxy-N-(4-(4-methylthiazol-5-yl)benzyl)pyrrolidine-2-carboxamide]",3.3
6,"Cc1ncsc1-c1ccc(CNC(=O)[C@@H]2C[C@@H](O)CN2C(=O)[C@@H](NC(=O)C(F)(F)OCCCOCCCOc2cc(F)c([C@@H]3c4[nH]c5ccccc5c4C[C@@H](C)N3CC(C)(C)F)c(F)c2)C(C)(C)C)cc1 [Example 119, (2S,4R)-1-((S)-2-(2-(3-(3-(3,5-Difluoro-4-((1R,3R)-2-(2-fluoro-2-methylpropyl)-3-methyl-2,3,4,9-tetrahydro-1H-pyrido[3,4-b]indol-1-yl)phenoxy)propoxy)propoxy)-2,2-difluoroacetamido)-3,3-dimethylbutanoyl)-4-hydroxy-N-(4-(4-methylthiazol-5-yl)benzyl)pyrrolidine-2-carboxamide]",0.8
7,"Cc1ncsc1-c1ccc(CNC(=O)[C@@H]2C[C@@H](O)CN2C(=O)[C@@H](NC(=O)CCCCOCCCCCOc2cc(F)c([C@@H]3c4[nH]c5ccccc5c4C[C@@H](C)N3CC(C)(C)F)c(F)c2)C(C)(C)C)cc1 [Example 113, (2S,4R)-1-((S)-2-(5-((5-(3,5-Difluoro-4-((1R,3R)-2-(2-fluoro-2-methylpropyl)-3-methyl-2,3,4,9-tetrahydro-1H-pyrido[3,4-b]indol-1-yl)phenoxy)pentyl)oxy)pentanamido)-3,3-dimethylbutanoyl)-4-hydroxy-N-(4-(4-methylthiazol-5-yl)benzyl)pyrrolidine-2-carboxamide]",0.6
8,"Cc1ncsc1-c1ccc(CNC(=O)[C@@H]2C[C@@H](O)CN2C(=O)[C@@H](NC(=O)COCCCCCNCCOc2cc(F)c([C@@H]3c4[nH]c5ccccc5c4C[C@@H](C)N3CC(C)(C)F)c(F)c2)C(C)(C)C)cc1 [Example 48, (2S,4R)-1-((S)-2-(2-((5-((2-(3,5-difluoro-4-((1R,3R)-2-(2-fluoro-2-methylpropyl)-3-methyl-2,3,4,9-tetrahydro-1H-pyrido[3,4-b]indol-1-yl)phenoxy)ethyl)amino)pentyl)oxy)acetamido)-3,3-dimethylbutanoyl)-4-hydroxy-N-(4-(4-methylthiazol-5-yl)benzyl)pyrrolidine-2-carboxamide]",1
9,"Cc1ncsc1-c1ccc(CNC(=O)[C@@H]2C[C@@H](O)CN2C(=O)[C@@H](NC(=O)COCCOCCOCCOCCOc2cc(F)c([C@@H]3c4[nH]c5ccccc5c4C[C@@H](C)N3CC(C)(C)F)c(F)c2)C(C)(C)C)cc1 [Example 37, (2S,4R)-1-((S)-2-(tert-Butyl)-17-(3,5-difluoro-4-((1R,3R)-2-(2-fluoro-2-methylpropyl)-3-methyl-2,3,4,9-tetrahydro-1H-pyrido[3,4-b]indol-1-yl)phenoxy)-4-oxo-6,9,12,15-tetraoxa-3-azaheptadecanoyl)-4-hydroxy-N-(4-(4-methylthiazol-5-yl)benzyl)pyrrolidine-2-carboxamide]",6.4
10,"Cc1ncsc1-c1ccc([C@H](C)NC(=O)[C@@H]2C[C@@H](O)CN2C(=O)[C@@H](NC(=O)COCCCCOCCCOc2cc(F)c([C@@H]3c4[nH]c5ccccc5c4C[C@@H](C)N3CC(C)(C)F)c(F)c2)C(C)(C)C)cc1 [Example 154, (2S,4R)-1-((S)-2-(2-(4-(3-(3,5-Difluoro-4-((1R,3R)-2-(2-fluoro-2-methylpropyl)-3-methyl-2,3,4,9-tetrahydro-1H-pyrido[3,4-b]indol-1-yl)phenoxy)propoxy)butoxy)acetamido)-3,3-dimethylbutanoyl)-4-hydroxy-N—((S)-1-(4-(4-methylthiazol-5-yl)phenyl)ethyl)pyrrolidine-2-carboxamide]",0.4
11,"Cc1ncsc1-c1ccc(CNC(=O)[C@@H]2C[C@@H](O)CN2C(=O)[C@@H](NC(=O)C(F)(F)OCCOCCCCOc2cc(F)c([C@@H]3c4[nH]c5ccccc5c4C[C@@H](C)N3CC(C)(C)F)c(F)c2)C(C)(C)C)cc1 [Example 121, (2S,4R)-1-((S)-2-(2-(2-(4-(3,5-Difluoro-4-((1R,3R)-2-(2-fluoro-2-methylpropyl)-3-methyl-2,3,4,9-tetrahydro-1H-pyrido[3,4-b]indol-1-yl)phenoxy)butoxy)ethoxy)-2,2-difluoroacetamido)-3,3-dimethylbutanoyl)-4-hydroxy-N-(4-(4-methylthiazol-5-yl)benzyl)pyrrolidine-2-carboxamide]",0.7
12,"Cc1ncsc1-c1ccc(CNC(=O)[C@@H]2C[C@@H](O)CN2C(=O)[C@@H](NC(=O)COCCOc2ccc(COc3cc(F)c([C@@H]4c5[nH]c6ccccc6c5C[C@@H](C)N4CC(C)(C)F)c(F)c3)cc2)C(C)(C)C)cc1 [Example 5, (2S,4R)-1-((S)-2-(2-(2-(4-((3,5-Difluoro-4-((1R,3R)-2-(2-fluoro-2-methylpropyl)-3-methyl-2,3,4,9-tetrahydro-1H-pyrido[3,4-b]indol-1-yl)phenoxy)methyl)phenoxy)ethoxy)acetamido)-3,3-dimethylbutanoyl)-4-hydroxy-N-(4-(4-methylthiazol-5-yl)benzyl)pyrrolidine-2-carboxamide]",0.8
13,"Cc1ncsc1-c1ccc(CNC(=O)[C@@H]2C[C@@H](O)CN2C(=O)[C@@H](NC(=O)COCCOCCCCCOc2cc(F)c([C@@H]3c4[nH]c5ccccc5c4C[C@@H](C)N3CC(C)(F)F)c(F)c2)C(C)(C)C)cc1 [Example 166, (2S,4R)-1-((S)-2-(2-(2-((5-(4-((1R,3R)-2-(2,2-Difluoropropyl)-3-methyl-2,3,4,9-tetrahydro-1H-pyrido[3,4-b]indol-1-yl)-3,5-difluorophenoxy)pentyl)oxy)ethoxy)acetamido)-3,3-dimethylbutanoyl)-4-hydroxy-N-(4-(4-methylthiazol-5-yl)benzyl)pyrrolidine-2-carboxamide]",0.8
14,"Cc1ncsc1-c1ccc(CNC(=O)[C@@H]2C[C@@H](O)CN2C(=O)[C@@H](NC(=O)COCCOCCOCCOCCOCCOCC(=O)Nc2ccc([C@@H]3c4[nH]c5ccccc5c4C[C@@H](C)N3CC(C)(C)F)cc2)C(C)(C)C)cc1 [Example 54, N^1-(4-((1R,3R)-2-(2-fluoro-2-methylpropyl)-3-methyl-2,3,4,9-tetrahydro-1H-pyrido[3,4-b]indol-1-yl)phenyl)-N^18—((S)-1-((2S,4R)-4-hydroxy-2-(4-(4-methylthiazol-5-yl)benzylcarbamoyl)pyrrolidin-1-yl)-3,3-dimethyl-1-oxobutan-2-yl)-2,5,8,11,14,17-hexaoxaoctadecane-1,18-dicarboxamide, Trifluoroacetic Acid]",16
